# Experimental data from patent US20180000085A1, “USE OF PICOLINAMIDE COMPOUNDS WITH FUNGICIDAL ACTIVITY” (DOW AGROSCIENCES LLC, priority 2014, published 2018).
# How the values were obtained:
# Zymoseptoria tritici = experiment: Leaf blotch of wheat (SEPTTR) disease control on wheat seedlings; type: in vivo; set-up: key to SEPTTR 1DP, HV activity at 100 ppm (% control rating) / SEPTTR 3DC, HV activity at 100 ppm (% control rating) / SEPTTR disease control, 1DP / SEPTTR disease control, 3DC / SEPTTR 1DP disease control rating, HV activity / SEPTTR 3DC disease control rating, HV activity / SEPTTR 3DC, LV activity at 125.1 g/H (% Control rating) / SEPTTR 1DP, LV activity at 125.1 g/H (% Control rating) / SEPTTR 1DP disease control rating, LV activity at 125.1 g/H / SEPTTR 3DC disease control rating, LV activity at 125.1 g/H / SEPTTR 3DC disease control rating, HV activity at 100 ppm / SEPTTR 1DP disease control rating, HV activity at 100 ppm / HV activity at 100 ppm SEPTTR 3DC (disease control rating) / HV activity at 100 ppm SEPTTR 1DP (disease control rating) / LV activity at 125.1 g/H SEPTTR 1DP (disease control rating) / LV activity at 125.1 g/H SEPTTR 3DC (disease control rating): A: > 80; B: ≤ 80; C: Not Tested; D: No Activity Observed in the Reported Assay; conditions: HV application at 100 ppm, wheat leaf blotch; for SEPTTR 1DP disease control rating, HV activity: 1 Day Protectant; for SEPTTR 3DC disease control rating, HV activity: 3 Day Curative
# Procedure: (§1) All fungicides were evaluated using the aforementioned method for their activity vs. all target diseases, unless stated otherwise. Wheat leaf blotch and brown rust activity were also evaluated using track spray applications, in which case the fungicides were formulated as EC formulations, containing 0.1% Trycol 5941 in the spray solutions. Wheat plants (variety Yuma) were grown from seed in a greenhouse in 50% mineral soil/50% soil-less Metro mix until the first leaf was fully emerged, with 7-10 seedlings per pot. These plants were inoculated with an aqueous spore suspension of Zymoseptoria tritici either prior to or after fungicide treatments. After inoculation the plants were kept in 100% relative humidity (one day in a dark dew chamber followed by two to three days in a lighted dew chamber at 20° C.) to permit spores to germinate and infect the leaf. The plants were then transferred to a greenhouse set at 20° C. for disease to develop. When disease symptoms were fully expressed on the 1st leaves of untreated plants, infection levels were assessed on a scale of 0 to 100 percent disease severity. Percent disease control was calculated using the ratio of disease severity on treated plants relative to untreated plants.
# Puccinia triticina = experiment: Wheat brown rust (PUCCRT) disease control on wheat seedlings; type: in vivo; set-up: key to PUCCRT 3DC, HV activity at 100 ppm (% control rating) / PUCCRT disease control, 3DC / PUCCRT 1DP disease control rating, HV activity / PUCCRT 3DC disease control rating, HV activity / PUCCRT 3DC, LV activity at 125.1 g/H (% Control rating) / PUCCRT 1DP, LV activity at 125.1 g/H (% Control rating) / PUCCRT 3DC disease control rating, LV activity at 125.1 g/H / PUCCRT 1DP disease control rating, LV activity at 125.1 g/H / PUCCRT 3DC disease control rating, HV activity at 100 ppm / PUCCRT 1DP disease control rating, HV activity at 100 ppm / HV activity at 100 ppm PUCCRT 3DC (disease control rating) / LV activity at 125.1 g/H PUCCRT 1DP (disease control rating) / LV activity at 125.1 g/H PUCCRT 3DC (disease control rating): A: > 80; B: ≤ 80; C: Not Tested; D: No Activity Observed in the Reported Assay; conditions: HV application at 100 ppm, wheat brown rust; for PUCCRT 1DP disease control rating, HV activity: 1 Day Protectant; for PUCCRT 3DC disease control rating, HV activity: 3 Day Curative
# Procedure: as §1, with “plants. Example B: Evaluation of Fungicidal Activity: Wheat Brown Rust (Puccinia triticina; Synonym: Puccinia recondita f. sp. Tritici; Bayer Code PUCCRT) Wheat plants (variety Yuma) were grown from seed in a greenhouse in 50% mineral soil/50% soil-less Metro mix until the first leaf was fully emerged, with 7-10 seedlings per pot. These plants were inoculated with an aqueous spore suspension of Puccinia triticina either prior to or after fungicide treatments. […] The plants were then transferred to a greenhouse set at 24° C. for disease to develop. Fungicide formulation, application and disease assessment followed the procedures as described in the Example A.” for “plants.”
Structure (SMILES),"SEPTTR 1DP disease control rating, HV activity (Zymoseptoria tritici)","SEPTTR 3DC disease control rating, HV activity (Zymoseptoria tritici)","PUCCRT 1DP disease control rating, HV activity (Puccinia triticina)","PUCCRT 3DC disease control rating, HV activity (Puccinia triticina)"
CC[C@H](NC(=O)c1nccc(OC)c1O)C(=O)O[C@@H](C)[C@@H](COc1ccccc1)Oc1ccccc1 [Cmpd 316],B (≤ 80),B (≤ 80),A (> 80),A (> 80)
CCC(CCC(C)C)C(Oc1ccccc1)C(C)OC(=O)C(C)NC(=O)c1nccc(OC)c1O (stereo not drawn) [Cmpd 317],A (> 80),B (≤ 80),A (> 80),B (≤ 80)
CCC(CCC(C)C)C(OCC1CC1)C(C)OC(=O)C(C)NC(=O)c1nccc(OC)c1O (stereo not drawn) [Cmpd 318],D,B (≤ 80),D,B (≤ 80)
COc1ccnc(C(=O)N[C@@H](C)C(=O)O[C@@H](C)[C@H](OCC2CC2)c2ccccc2)c1O [Cmpd 319],A (> 80),A (> 80),A (> 80),B (≤ 80)
"CCCO[C@@H]([C@H](C)OC(=O)[C@H](C)NC(=O)c1nccc(OC)c1O)[C@H](CC)Oc1ccccc1 [Cmpd 326, (S)-(2S,3S,4S)-4-phenoxy-3-propoxyhexan-2-yl-2-(3-hydroxy-4-methoxypicolinamido)propanoate]",D,D,A (> 80),A (> 80)
COc1ccnc(C(=O)N[C@@H](C)C(=O)O[C@@H](C)COCc2ccccc2)c1O [Cmpd 331],B (≤ 80),D,B (≤ 80),A (> 80)
"C=CC[C@@H](OCc1ccccc1)[C@H](C)OC(=O)[C@H](C)NC(=O)c1nccc(OC)c1O [Cmpd 333, (S)-(2S,3R)-3-(benzyloxy)hex-5-en-2-yl-2-(3-hydroxy-4-methoxypicolinamido)propanoate]",B (≤ 80),B (≤ 80),A (> 80),A (> 80)
CCCOC[C@H](C)OC(=O)[C@H](C)NC(=O)c1nccc(OC)c1O [Cmpd 334],B (≤ 80),B (≤ 80),D,B (≤ 80)
COc1ccnc(C(=O)N[C@@H](C)C(=O)O[C@@H](C)COc2ccccc2)c1O [Cmpd 335],B (≤ 80),D,A (> 80),A (> 80)
COc1ccnc(C(=O)N[C@@H](C)C(=O)O[C@@H](C)COC(=O)C(C)C)c1O [Cmpd 336],B (≤ 80),B (≤ 80),D,D
COc1ccnc(C(=O)N[C@@H](C)C(=O)O[C@@H](C)COCC2CC2)c1O [Cmpd 338],B (≤ 80),D,B (≤ 80),D
COc1ccnc(C(=O)N[C@@H](C)C(=O)O[C@@H](C)COCC(C)C)c1O [Cmpd 339],B (≤ 80),D,B (≤ 80),A (> 80)
COc1ccnc(C(=O)N[C@@H](C)C(=O)O[C@@H](C)COC2CCCC2)c1O [Cmpd 340],B (≤ 80),D,B (≤ 80),A (> 80)
COc1ccnc(C(=O)N[C@@H](C)C(=O)O[C@@H](C)COC(C)(C)C)c1O [Cmpd 341],B (≤ 80),B (≤ 80),B (≤ 80),B (≤ 80)
COc1ccnc(C(=O)N[C@@H](C)C(=O)O[C@@H](C)[C@@H](Cc2ccccc2)OC)c1O [Cmpd 342],D,B (≤ 80),B (≤ 80),A (> 80)
COc1ccnc(C(=O)N[C@@H](C)C(=O)O[C@@H](C)[C@@H](Cc2ccccc2)OCC(C)C)c1O [Cmpd 343],A (> 80),B (≤ 80),A (> 80),A (> 80)
COc1ccnc(C(=O)N[C@@H](C)C(=O)O[C@@H](C)[C@@H](Cc2ccccc2)OCC2CC2)c1O [Cmpd 344],D,B (≤ 80),B (≤ 80),A (> 80)
COc1ccnc(C(=O)N[C@@H](C)C(=O)O[C@@H](C)[C@@H](Cc2ccccc2)Oc2ccccc2)c1O [Cmpd 345],D,B (≤ 80),A (> 80),A (> 80)
COc1ccnc(C(=O)N[C@@H](C)C(=O)O[C@@H](C)[C@H](Oc2ccc(Cl)cc2Cl)C2CCCC2)c1O [Cmpd 346],D,B (≤ 80),B (≤ 80),D
COc1ccnc(C(=O)N[C@@H](C)C(=O)O[C@@H](C)[C@@H](Oc2ccccc2)C(C)C)c1O [Cmpd 347],B (≤ 80),B (≤ 80),B (≤ 80),A (> 80)
COc1ccnc(C(=O)N[C@@H](C)C(=O)O[C@H](C)[C@@H](Oc2ccccc2)C(C)C)c1O [Cmpd 349],D,B (≤ 80),D,D
